In patent publication US20090143279A1 (priority 2007, published 2009):
Where two headings read alike, the source gives them in different places.

Key:
reactive oxygen species = type: cell-based, mouse; settings: for ROS (composite Z-score): normalized score vs mock-treated (DMSO) wells
OXPHOS gene expression = type: cell-based, mouse; settings: for GE-HTS (composite Z-score): normalized score vs mock-treated (DMSO) wells
[1] = test system: mitochondrial membrane potential; type: cell-based, mouse; settings: for ΔΨm (composite Z-score): normalized score vs mock-treated (DMSO) wells
nuOXPHOS transcripts = type: cell-based, mouse; settings: for nucOX (composite Z-score): normalized score vs mock-treated (DMSO) wells
[2] = test system: cellular dehydrogenase activity; settings: for MTT (composite Z-score): normalized score vs mock-treated (DMSO) wells
C2C12 myotubes = settings: for Viability (composite Z-score): normalized score vs mock-treated (DMSO) wells
mtOXPHOS transcripts = type: cell-based, mouse; settings: for mitoOX (composite Z-score): normalized score vs mock-treated (DMSO) wells
cytochrome c = type: cell-based, mouse; settings: for cyt c (composite Z-score): normalized score vs mock-treated (DMSO) wells
[3] = composite Z-score vs DMSO, Conc 8.92 μM
[4] = composite Z-score vs DMSO, Conc 20 μM
[5] = composite Z-score vs mock-treated (DMSO) wells, Conc 20 μM
[6] = composite Z-score vs DMSO wells, Conc 20 μM
[7] = composite Z-score vs mock-treated (DMSO) wells, concentration of each compound in μM
[8] = normalized composite Z-score vs mock-treated (DMSO) wells, Conc 20 μM

Chain of cytochrome c (P62897 whole entry): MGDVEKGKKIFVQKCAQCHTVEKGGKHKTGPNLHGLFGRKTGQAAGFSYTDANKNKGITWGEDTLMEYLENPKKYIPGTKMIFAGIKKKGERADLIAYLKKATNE

CC(CN(C)C)CN1c2ccccc2Sc2ccccc21 (stereo not drawn) [trimeprazine]
ROS (reactive oxygen species; [3]): 1.314 | ROS (reactive oxygen species; [4]): −0.430 | GE-HTS (OXPHOS gene expression; [3]): −0.942 | GE-HTS (OXPHOS gene expression; [4]): −0.013 | ΔΨm [1, 3]: −0.821 | ΔΨm [1, 4]: 1.905 | nucOX (nuOXPHOS transcripts; [3]): −0.936 | nucOX (nuOXPHOS transcripts; [4]): −0.130 | MTT [2, 3]: −2.221 | MTT [2, 4]: −2.227 | Viability (C2C12 myotubes; [3]): 0.760 | Viability (C2C12 myotubes; [4]): −1.472 | mitoOX (mtOXPHOS transcripts; [3]): −0.778 | mitoOX (mtOXPHOS transcripts; [4]): 0.208 | cyt c (cytochrome c; [3]): −2.786 | cyt c (cytochrome c; [4]): −0.086

3beta-chloroandrostanone
ROS (reactive oxygen species; [5]): −0.077 | GE-HTS (OXPHOS gene expression; [5]): −1.190 | ΔΨm [1, 5]: −0.860 | nucOX (nuOXPHOS transcripts; [5]): −1.192 | MTT [2, 5]: −1.203 | Viability (C2C12 myotubes; [5]): −0.424 | mitoOX (mtOXPHOS transcripts; [5]): −0.907 | cyt c (cytochrome c; [5]): 1.021

CO[C@H]1C[C@H](O[C@H]2[C@H](C)[C@@H](O[C@@H]3O[C@H](C)C[C@H](N(C)C)[C@H]3OC(C)=O)[C@@H](C)C[C@@]3(CO3)C(=O)[C@H](C)[C@@H](OC(C)=O)[C@@H](C)[C@@H](C)OC(=O)[C@@H]2C)O[C@@H](C)[C@@H]1OC(C)=O [troleandomycin]
ROS (reactive oxygen species; [4]): 0.099 | GE-HTS (OXPHOS gene expression; [4]): −1.234 | ΔΨm [1, 4]: −0.780 | nucOX (nuOXPHOS transcripts; [4]): −1.277 | MTT [2, 4]: −1.250 | Viability (C2C12 myotubes; [4]): −1.520 | mitoOX (mtOXPHOS transcripts; [4]): −0.905 | cyt c (cytochrome c; [4]): −0.063

Cc1noc(NS(=O)(=O)c2ccc(N)cc2)c1C [sulfisoxazole]
ROS (reactive oxygen species; [6]): −0.095 | GE-HTS (OXPHOS gene expression; [6]): 0.103 | ΔΨm [1, 6]: −0.543 | nucOX (nuOXPHOS transcripts; [6]): 0.239 | MTT [2, 6]: −0.835 | Viability (C2C12 myotubes; [6]): −1.895 | mitoOX (mtOXPHOS transcripts; [6]): −0.187 | cyt c (cytochrome c): 0.001 | cyt c (cytochrome c; [6]): 0.649

COc1cc(O)c2c(=O)cc(C)oc2c1CC=C(C)C [heteropeucenin, methyl ether]
ROS (reactive oxygen species; [5]): 0.256 | GE-HTS (OXPHOS gene expression; [5]): 0.299 | ΔΨm [1, 5]: 0.886 | nucOX (nuOXPHOS transcripts; [5]): 0.328 | MTT [2, 5]: −1.476 | Viability (C2C12 myotubes; [5]): −0.034 | mitoOX (mtOXPHOS transcripts; [5]): 0.217 | cyt c (cytochrome c; [5]): 0.416

COC(=O)C[C@H]1C2(C)CC34OC5(C)O[C@@]6([C@H](OC)C(OC(=O)C(C)C)[C@]7(C)C(/C(=C(/OC)C(C)C)C(=O)O[C@H]7c7ccoc7)[C@@]6(O5)[C@H](OC)[C@@]3(OC)C2OC(C)=O)[C@]14C (stereo partly drawn) [chukrasin methyl ether]
ROS (reactive oxygen species; [5]): 0.777 | GE-HTS (OXPHOS gene expression; [5]): 0.352 | ΔΨm [1, 5]: −1.084 | nucOX (nuOXPHOS transcripts; [5]): 0.417 | MTT [2, 5]: −0.818 | Viability (C2C12 myotubes; [5]): −0.822 | mitoOX (mtOXPHOS transcripts; [5]): 0.198 | cyt c (cytochrome c; [5]): −0.248

CC(=O)N[C@@H](CC(=O)O)C(=O)O [N-acetylaspartic acid]
ROS (composite Z-score) (reactive oxygen species; Conc 20 μM): 0.309 | GE-HTS (composite Z-score) (OXPHOS gene expression; Conc 20 μM): −0.670 | ΔΨm (composite Z-score) ([1]; Conc 20 μM): −0.663 | nucOX (composite Z-score) (nuOXPHOS transcripts; Conc 20 μM): −0.436 | MTT (composite Z-score) ([2]; Conc 20 μM): −0.456 | Viability (composite Z-score) (C2C12 myotubes; Conc 20 μM): −0.266 | mitoOX (composite Z-score) (mtOXPHOS transcripts; Conc 20 μM): −1.046 | cyt c (composite Z-score) (cytochrome c; Conc 20 μM): 0.753

COc1c(O)cc(O)cc1O [iretol]
ROS (reactive oxygen species; [5]): −0.393 | GE-HTS (OXPHOS gene expression; [5]): −0.881 | ΔΨm [1, 5]: −0.404 | nucOX (nuOXPHOS transcripts; [5]): −0.583 | MTT [2, 5]: −0.086 | Viability (C2C12 myotubes; [5]): −0.552 | mitoOX (mtOXPHOS transcripts; [5]): −1.366 | cyt c (cytochrome c; [5]): 0.347

Cc1cc(=O)c2c(O)c3c(cc2o1)OC(C)(C)CC3 [dihydrospatheliachromene]
ROS (reactive oxygen species; [5]): 1.483 | GE-HTS (OXPHOS gene expression; [5]): −0.666 | ΔΨm [1, 5]: −0.174 | nucOX (nuOXPHOS transcripts; [5]): −0.620 | MTT [2, 5]: −1.802 | Viability (C2C12 myotubes; [5]): −0.538 | mitoOX (mtOXPHOS transcripts; [5]): −0.569 | cyt c (cytochrome c; [5]): 0.068

CC(C)c1c(O)ccc2c1CCC1C(C)(C(=O)O)CCCC21C (stereo not drawn) [totarol-19-carboxylic acid]
ROS (reactive oxygen species; [7]): −0.209 | GE-HTS (OXPHOS gene expression; [7]): −0.399 | ΔΨm [1, 7]: −0.008 | nucOX (nuOXPHOS transcripts; [7]): −0.494 | MTT [2, 7]: −1.701 | Viability (C2C12 myotubes; [7]): −0.506 | mitoOX (mtOXPHOS transcripts; [7]): −0.073 | cyt c (cytochrome c; [7]): −1.116

CC1OC(OC2C(O)COC(OC3C(C)OC(OC4C(OC(=O)C56CCC(C)(C)CC5C5=CCC7C8(C)CCC(OC9OC(CO)C(O)C(O)C9O)C(C)(C)C8CCC7(C)C5(C)CC6O)OCC(O)C4O)C(O)C3O)C2O)C(O)C(O)C1O (stereo not drawn) [chrysanthellin A]
ROS (reactive oxygen species; [8]): −1.565 | GE-HTS (OXPHOS gene expression; [8]): −0.126 | ΔΨm [1, 8]: −1.860 | nucOX (nuOXPHOS transcripts; [8]): −0.394 | MTT [2, 8]: −4.661 | Viability (C2C12 myotubes; [8]): −4.075 | mitoOX (mtOXPHOS transcripts; [8]): 0.474 | cyt c (cytochrome c; [8]): −4.088

C[C@@H]1[C@H](O)[C@@H](C)/C=C/C=C/CC/C=C/C=C/C=C/C=C/C(O[C@H]2O[C@H](C)[C@@H](O)[C@H](N)[C@@H]2O)CC2O[C@](O)(CC(O)C(O)CCC(O)CC(O)CC(O)CC(=O)O[C@H]1C)CC(O)C2C(=O)O (stereo partly drawn) [nystatine]
ROS (reactive oxygen species; [7]): 0.765 | GE-HTS (OXPHOS gene expression; [7]): −0.436 | ΔΨm [1, 7]: −0.660 | nucOX (nuOXPHOS transcripts; [7]): −0.272 | MTT [2, 7]: −1.147 | Viability (C2C12 myotubes; [7]): −0.430 | mitoOX (mtOXPHOS transcripts; [7]): −0.683 | cyt c (cytochrome c; [7]): 0.061

CC1=CC(=O)C2=C(C)CC[C@@H]3[C@H](OC(=O)[C@H]3C)[C@@H]12 [leucomisine]
ROS (composite Z-score) (reactive oxygen species; Conc 16.24 μM): 0.368 | GE-HTS (composite Z-score) (OXPHOS gene expression; Conc 16.24 μM): −0.450 | ΔΨm (composite Z-score) ([1]; Conc 16.24 μM): 0.151 | nucOX (composite Z-score) (nuOXPHOS transcripts; Conc 16.24 μM): −0.405 | MTT (composite Z-score) ([2]; Conc 16.24 μM): −1.034 | Viability (composite Z-score) (C2C12 myotubes; Conc 16.24 μM): −0.439 | mitoOX (composite Z-score) (mtOXPHOS transcripts; Conc 16.24 μM): −0.470 | cyt c (composite Z-score) (cytochrome c; Conc 16.24 μM): −0.568

CC(=O)O[C@H]1C[C@@H](OC(C)=O)C(C)(C)[C@@H]2C[C@@H](OC(C)=O)[C@]3(C)[C@H](CC[C@@]4(C)[C@H](c5ccoc5)OC(=O)[C@H]5O[C@@]534)[C@@]12C [khivorin]
ROS (reactive oxygen species; [5]): 0.187 | GE-HTS (OXPHOS gene expression; [5]): −0.144 | ΔΨm [1, 5]: −0.145 | nucOX (nuOXPHOS transcripts; [5]): −0.022 | MTT [2, 5]: −1.421 | Viability (C2C12 myotubes; [5]): 0.807 | mitoOX (mtOXPHOS transcripts; [5]): −0.423 | cyt c (cytochrome c; [5]): 0.229

CCOC(=O)CCCCCCCCCCCCC1C=CCC1 (stereo not drawn) [chaulmoogric acid, ethyl ester]
ROS (reactive oxygen species; [6]): 0.513 | GE-HTS (OXPHOS gene expression; [6]): −0.730 | ΔΨm [1, 6]: −0.536 | nucOX (nuOXPHOS transcripts; [6]): −0.876 | MTT [2, 6]: −0.612 | Viability (C2C12 myotubes; [6]): −0.015 | mitoOX (mtOXPHOS transcripts; [6]): −0.265 | cyt c (cytochrome c; [6]): 0.617

O=c1cc(-c2ccc(O)cc2)oc2cc(O[C@@H]3O[C@H](CO)[C@@H](O)[C@H](O)[C@H]3O[C@@H]3OC[C@](O)(CO)[C@H]3O)cc(O)c12 [apiin]
ROS (reactive oxygen species; [4]): 0.322 | GE-HTS (OXPHOS gene expression; [4]): −0.032 | ΔΨm [1, 4]: 0.029 | nucOX (nuOXPHOS transcripts; [4]): −0.150 | MTT [2, 4]: −1.444 | Viability (C2C12 myotubes; [4]): −0.631 | mitoOX (mtOXPHOS transcripts; [4]): 0.250 | cyt c (cytochrome c; [4]): −0.697

COc1ccccc1-c1cc(=O)c2c(OC)cccc2o1 [5,2′-dimethoxyflavone]
ROS (reactive oxygen species; [8]): 0.645 | GE-HTS (OXPHOS gene expression; [8]): −0.862 | ΔΨm [1, 8]: 1.002 | nucOX (nuOXPHOS transcripts; [8]): −0.881 | MTT [2, 8]: −0.219 | Viability (C2C12 myotubes; [8]): −0.228 | mitoOX (mtOXPHOS transcripts; [8]): −0.607 | cyt c (cytochrome c; [8]): 1.046

CC(=O)Oc1cc(OC(C)=O)c2c(c1)O[C@H](c1ccc(OC(C)=O)c(OC(C)=O)c1)[C@@H](OC(C)=O)C2 [catechin pentaacetate]
ROS (reactive oxygen species; [8]): −1.649 | GE-HTS (OXPHOS gene expression; [8]): 0.269 | ΔΨm [1, 8]: −2.799 | nucOX (nuOXPHOS transcripts; [8]): 0.314 | MTT [2, 8]: −1.126 | Viability (C2C12 myotubes; [8]): 0.652 | mitoOX (mtOXPHOS transcripts; [8]): 0.161 | cyt c (cytochrome c; [8]): 0.425
